# Read-outs that look alike come from different tables or passages of the source.
# Tests used:
# [1] = 3-day rat tolerability study of compound 2; assay type: in vivo
# Protocol: Protein binding (human free) […]
# μM Cmax (total). Consequently, compound 2 was classified as having no therapeutic window preclinically in this model.
# Rat 3 Day Toxicology Study: Male Han Wister rats (n=4) received compound 2 at dose levels of 100 or 300 mg/kg for three days (AstraZeneca, Waltham, USA).
# One animal was found dead, and one considered moribund on the morning of Day 4, before
# [2] = Rat blood PK, IV and oral; assay type: in vivo; conditions: for Vd / half-life / clearance / MRT / bioavailability / AUC(0-inf) / AUC(0-t) / Cmax: rat; for bioavailability / AUC(0-inf) / AUC(0-t) / Cmax: 10 mg/kg
# Protocol: Blood samples were collected at 0.083, 0.25, 0.5, 1, 2, 4, 8, 23, 32, 48, 55 and 72 hours after an IV dose of 2 mg/kg or an oral dose of 10 mg/kg. Oral administration was done using oral gavage at a maximum dose volume of 10 mL/kg. Solution formulation containing 10% NMP, 20% DMA in dextrose / normal saline was used for IV administration and a suspension in 0.5% w/v HPMC with 0.1% v/v Tween 80 was used for oral administration. 25 µl of blood samples were mixed with 100 µL of Milli-Q water and vortexed for 5 minutes in the plate shaker at a speed of 900 rpm to ensure complete hemolysis. Proteins were precipitated by adding 125 µL of cold acetonotrile containing internal standard. After extraction on a plate shaker for 10 minutes at 900 rpm, the plate was centrifuged at 4000 rpm for 20 minutes. The supernatant (180 µL) was transferred to another plate and 2.5 µL of Zinc sulphate (200 mM) was added to separate the heme fraction. This mixture was centrifuged and 10 µL of the supernatant was analyzed by LC-MS/MS. […]
# [3] = tested on: Dd2; experiment: SYBR green growth assay, Dd2 (parental); assay type: cell-based, P. falciparum; conditions: Plasmodium falciparum, DD2, Dd2 parental; mean ± SD, Supplementary Table 13
# Protocol: To eliminate overlapping mode of action with known targets, cross-resistance testing of representative TAPs against drug-resistant lines with well-characterized mutations in Pf dihydroorotate dehydrogenase, Pf heat-shock protein 90, Pf chloroquine resistance transporter[25] or Pf cytochrome b reduction site[26] was performed. […] Assays were carried out in 384-well format with three technical replicates within an assay day and biological replicates carried out on three different assay days to assign a final EC50.
# A representative TAP (compound 6) was tested for its activity against a panel of P. falciparum strains known to harbour mutations conferring resistance to antimalarial agents under development. Artesunate and amodiaquine were included as additional control […]
# Values are the means ± standard deviation derived from three independent assays performed
# [4] = tested on: Dd2 PI4K Cpd 1; experiment: [3H]-hypoxanthine incorporation assay, Dd2 PI4K Cpd 1 resistant; assay type: cell-based; conditions: Plasmodium falciparum
# Protocol: Supplementary Table 3: Compound 9 and 12 retain their activity against Pf strains harbouring mutations to novel antimalarial agents in clinical development. Compound 9 and 12 were tested for their antiplasmodial activity against a panel of Pf strains known to harbour mutations conferring resistance to novel agents under clinical development. Parasite growth inhibition is measured using the [3H]-hypoxanthine incorporation assay. IC50s are established for each strain (n ≥2) and compared to the IC50 of Dd2 (standard pan-resistant […]
# [5] = Hepatocyte Clint, rat; assay type: in vitro ADME; conditions: for Predicted blood CL: Rat
# Text: (§1) Supplementary Note 5: Prediction of human clearance for compound 12 by IVIVE.
# (§2) Human clearance (CL) was predicted by in vitro-in vivo extrapolation (IVIVE) from the in vitro Clint in human hepatocytes6. In vitro Clint was scaled to in vivo Clint as follows:
# (§3) Clint in vivo = Clint in vitro * scaling factors * fublood/fuinc
# (§4) The liver weights used for scaling were 40, 32 and 24 g/kg body weight in rat, dog and human respectively. Hepatocellularity used for scaling was 163, 169 and 120 (X 106) cells/g liver in rat, dog and human respectively. Free fraction in blood was calculated as fuplasma /Blood:Plasma (BP) ratio. BP ratio and free fraction in the hepatocyte incubation mix, fuinc, were measured in vitro. Slope and intercept from the linear regression analysis of IVIVC for a large number of AstraZeneca compounds was applied for final correction in the scaled in vivo Clint. A well stirred model was used for CL prediction.
# (§5) Where Qh is the liver blood flow. The values of Qh in rat, dog and human are 72, 55 and 20 mL.min-1kg-1 in rat, dog and human, respectively. In vitro parameters, observed in vivo CL and predicted CL are shown in supplementary Table 10. […]
# (§6) (also on this page, place not known: in vivo in vivo CLintQ CLintQCL Predicted predicted predicted h h + ×=)
# (§7) (1 picture or pasted object on this page, not shown here)
# [6] = Hepatocyte Clint, dog; assay type: in vitro ADME; conditions: for Predicted blood CL: Dog
# Text: as §1, §2, §3, §4, §5, §6, §7
# [7] = Hepatocyte Clint, human; assay type: in vitro ADME; conditions: hepatocytes
# Text: as §1, §2, §3, §4, §5, §6, §7
# [8] = Plasma protein binding, dog
# [9] = Wistar, whole blood, po, Oral 10 mg kg-1, Mean
# [10] = Wistar, whole blood, po, Oral 10 mg kg-1, Rat 1
# [11] = Wistar, whole blood, po, Oral 10 mg kg-1, Rat 2
# [12] = Wistar, whole blood, po, Oral 10 mg kg-1, Rat 3
smiles,measurement,setting,value
Cc1cc(Nc2ncc(N3CCN(C)CC3)c(N3CCCC3)n2)ccn1 [compound 2],A - Plasma Cmax Total,[1]; 100 mg/kg oral,8130 nM
same,Safety Margin (A / B),[1]; 100 mg/kg oral,None
same,Summary of clinical signs and effects,[1]; 100 mg/kg oral,Non-specific toxicity
same,A - Plasma Cmax Total,[1]; 300 mg/kg oral,19180 nM
same,Safety Margin (A / B),[1]; 300 mg/kg oral,None
same,Summary of clinical signs and effects,[1]; 300 mg/kg oral,Premature decedents
"Cc1nc(Nc2ncc(N3CCN(C)[C@H](C)C3)c(Nc3cc(C)n(C)n3)n2)cc(C2CC2)c1F [compound 12, (R)-N2-(4-cyclopropyl-5-fluoro-6-methylpyridin-2-yl)-N4-(1,5-dimethyl-1H-pyrazol-3-yl)-5-(3,4-dimethylpiperazin-1-yl)pyrimidine-2,4-diamine]",Vd,"[2]; Wistar (rat), Beagle (dog), whole blood (rat), plasma (dog), intravenous, 2 mg/kg, rat and dog, read-out: volume of distribution (Vss)",10 to 20 L/kg
same,half-life,"[2]; Wistar (rat), Beagle (dog), whole blood (rat), plasma (dog), iv, 2 mg/kg, intravenous PK, rat and dog, read-out: half-life",11 to 13 h
same,half-life,"[2]; Wistar (rat), Beagle (dog), whole blood (rat), plasma (dog), po, oral PK study, rat and dog, read-out: half-life",14 to 16 h
same,clearance,"[2]; Wistar, blood, iv, 2 mg/kg, Rat, read-out: Observed blood CL",5 to 13 mL/min/kg
same,MRT,"[2]; Wistar, whole blood, iv, 2 mg/kg, IV 2 mg kg-1, Mean",15.7 h
same,clearance,"[2]; Wistar, whole blood, iv, 2 mg/kg, IV 2 mg kg-1, Mean, read-out: CL",9.2 mL/min/kg
same,Vd,"[2]; Wistar, whole blood, iv, 2 mg/kg, IV 2 mg kg-1, Mean, read-out: Vss",7.7 L/kg
same,half-life,"[2]; Wistar, whole blood, iv, 2 mg/kg, IV 2 mg kg-1, Mean, read-out: t½ (converted)",15.2 h
same,MRT,"[2]; Wistar, whole blood, iv, 2 mg/kg, IV 2 mg kg-1, Rat 1",11.8 h
same,clearance,"[2]; Wistar, whole blood, iv, 2 mg/kg, IV 2 mg kg-1, Rat 1, read-out: CL",13.1 mL/min/kg
same,Vd,"[2]; Wistar, whole blood, iv, 2 mg/kg, IV 2 mg kg-1, Rat 1, read-out: Vss",9.3 L/kg
same,half-life,"[2]; Wistar, whole blood, iv, 2 mg/kg, IV 2 mg kg-1, Rat 1, read-out: t½ (converted)",13.5 h
same,MRT,"[2]; Wistar, whole blood, iv, 2 mg/kg, IV 2 mg kg-1, Rat 2",22.6 h
same,clearance,"[2]; Wistar, whole blood, iv, 2 mg/kg, IV 2 mg kg-1, Rat 2, read-out: CL",4.8 mL/min/kg
same,Vd,"[2]; Wistar, whole blood, iv, 2 mg/kg, IV 2 mg kg-1, Rat 2, read-out: Vss",6.6 L/kg
same,half-life,"[2]; Wistar, whole blood, iv, 2 mg/kg, IV 2 mg kg-1, Rat 2, read-out: t½ (converted)",19.2 h
same,MRT,"[2]; Wistar, whole blood, iv, 2 mg/kg, IV 2 mg kg-1, Rat 3",12.6 h
same,clearance,"[2]; Wistar, whole blood, iv, 2 mg/kg, IV 2 mg kg-1, Rat 3, read-out: CL",9.6 mL/min/kg
same,Vd,"[2]; Wistar, whole blood, iv, 2 mg/kg, IV 2 mg kg-1, Rat 3, read-out: Vss",7.2 L/kg
same,half-life,"[2]; Wistar, whole blood, iv, 2 mg/kg, IV 2 mg kg-1, Rat 3, read-out: t½ (converted)",13 h
same,bioavailability,"[2]; Wistar, whole blood, oral, read-out: Rat F (bioavailability)",80%
same,AUC(0-inf),[2]; [9],35.8 µM·h
same,AUC(0-t),[2]; [9],34.7 µM·h
same,Cmax,[2]; [9],2000 nM
same,bioavailability,"[2]; Wistar, whole blood, po, Oral 10 mg kg-1, Mean, read-out: F",90%
same,AUC(0-inf),[2]; [10],33.1 µM·h
same,AUC(0-t),[2]; [10],31.8 µM·h
same,Cmax,[2]; [10],1710 nM
same,bioavailability,"[2]; Wistar, whole blood, po, Oral 10 mg kg-1, Rat 1, read-out: F",121%
same,AUC(0-inf),[2]; [11],38.4 µM·h
same,AUC(0-t),[2]; [11],37.2 µM·h
same,Cmax,[2]; [11],2210 nM
same,bioavailability,"[2]; Wistar, whole blood, po, Oral 10 mg kg-1, Rat 2, read-out: F",52%
same,AUC(0-inf),[2]; [12],36 µM·h
same,AUC(0-t),[2]; [12],35.1 µM·h
same,Cmax,[2]; [12],1990 nM
same,bioavailability,"[2]; Wistar, whole blood, po, Oral 10 mg kg-1, Rat 3, read-out: F",96%
same,Tmax,"[2]; Wistar, whole blood, Oral 10 mg kg-1, Rat 1",4 h
same,CL,[2]; rat and dog,< 35 % liver blood flow
same,IC50,[3],16.1 ± 1 nM
same,IC50,[4],7.1 nM
same,Predicted blood CL,[5],26 % LBF
same,Predicted blood CL,[5]; IVIVC from hepatocyte Clint,18.8 mL/min/kg
same,hepatocyte CLint,"[5]; rat, hepatocytes",11.3 µL/min/1e6 cells
same,Predicted blood CL,[6],38 % LBF
same,Predicted blood CL,[6]; IVIVC from hepatocyte Clint,20.8 mL/min/kg
same,hepatocyte CLint,"[6]; dog, hepatocytes",9.3 µL/min/1e6 cells
same,hepatocyte CLint,[7],3.1 µL/min/1e6 cells
same,Plasma protein binding (% free),[8]; Dog,3.8 % free
same,fraction unbound,"[8]; dog, plasma",0.038

# Reference: paper PMC4389225, “Triaminopyrimidine is a fast-killing and long-acting antimalarial clinical candidate” (Nature Communications, 2015)
